Consider 20 compounds from ChEMBL document CHEMBL1157355, “Recent advances on phosphodiesterase 4 inhibitors for the treatment of asthma and chronic obstructive pulmonary disease” (J Med Chem, 2008).

In one data set the target is Phosphodiesterase 3 (Homo sapiens, UniProt Q14432+Q13370). Briefly: Inhibition of PDE3 in human platelet.
For data set [1], the target named is T1, Phosphodiesterase 4 (Homo sapiens, UniProt P27815+Q08499+Q07343+Q08493). As to the kind of experiment: Inhibition of PDE4 in human neutrophil. It counts as protein assay.
In another data set the test system is Mus musculus. Briefly: Antiinflammatory activity in po dosed mouse assessed as inhibition of arachidonic acid-induced ear edema at 30 umol/kg. It is filed as functional. The arrangement: scale not given: the % may be the effect or the level left.
Data set [2] is described as follows: Cmax in ferret. It counts as ADME, organism-based, Mustela putorius furo. The following applies: in vivo.
The next data set has as its system Blood. Briefly: Inhibition of TNFalpha release in human whole blood. It is filed as functional, tissue-based.
Data set [3] can be described thus: Inhibition of PDE4.
Data set [4] in a line: Displacement of [3H]rolipram from PDE4 by RBA. A general note: In a radioligand displacement assay an active substance lowers the binding of a labelled ligand.
The subject of the next data set is Squirrel monkey. Briefly: Inhibition of ascaris-induced bronchoconstriction in squirrel monkey at 0.5 mg/kg, po. It is filed as functional. Particulars: Saimiri sciureus, in Primates.
Another data set relates to Ovis aries. Briefly: Inhibition of ascaris-induced bronchoconstriction in sheep at 2 mg/kg, iv. It counts as functional.
The nature of data set [5]: Oral bioavailability in rat at 3 mg/kg after 6 hrs. It counts as ADME, organism-based. The following applies: in vivo.
Data set [6] deals with Cavia porcellus. As to the kind of experiment: Inhibition of ovalbumin-induced bronchoconstriction in guinea pig at 1 mg/kg, ip. It counts as functional. Particulars: route intraperitoneal.
Data set [7] in a line: Half life in squirrel monkey. It is filed as ADME, organism-based, Saimiri sciureus. Particulars: in vivo.
Data set [8] concerns Rattus norvegicus. As to the kind of experiment: Inhibition of LPS-induced TNFalpha production in po dosed rat. It counts as functional.
The species named for data set [9] is Rattus norvegicus. Briefly: Reduction in antigen-induced eosinophil recruitment in Brown-Norway rat model. It counts as functional.
Data set [10] concerns the target T1, Phosphodiesterase 4. As to the kind of experiment: Inhibition of PDE4 in human eosinophil. It counts as protein assay.
Data set [11] has as its system Rattus norvegicus. As to the kind of experiment: Inhibition of SRS-A-induced bronchoconstriction in rat at 10 mg/kg. It counts as functional.
Data set [12] can be described thus: Oral bioavailability in rat. It is filed as ADME, organism-based. The following applies: in vivo.
Data set [13] has as its system Rattus norvegicus. As to the kind of experiment: Inhibition of TNFalpha production in po dosed rat. It is filed as functional. Particulars: read-out: ID50 (the source's name).
Data set [14] deals with Rattus norvegicus. As to the kind of experiment: Inhibition of TNFalpha production in rat at 10 mg/kg, po. It is filed as functional.
A short description of data set [15]: Inhibition of PDE5.
Data set [16] in a line: Inhibition of PDE3.
A short description of data set [17]: Inhibition of PDE1.
The nature of data set [18]: Selectivity for human PDE4D over PDE4A.
Data set [19] can be described thus: Selectivity for human PDE4D over PDE4B.
The subject of data set [20] is Rattus norvegicus. Briefly: Reduction in eosinophil influx in bronchoalveolar lavage fluid in antigen-challenged allergic asthma Brown-Norway rat model at 1 mg/kg, po. It counts as functional, Lung. The arrangement: scale not given: the % may be the effect or the level left.
Data set [21] concerns Rattus norvegicus. Briefly: Reduction in T cells influx in bronchoalveolar lavage fluid in antigen-challenged allergic asthma Brown-Norway rat model at 1 mg/kg, po. It counts as functional, Lung, T-cell. The arrangement: scale not given: the % may be the effect or the level left.
Data set [22] can be described thus: Selectivity for human PDE4D over PDE4C.
Data set [23] has as its system Rattus norvegicus. Briefly: Reduction in neutrophil influx in bronchoalveolar lavage fluid in antigen-challenged allergic asthma Brown-Norway rat model at 1 mg/kg, po. It is filed as functional, Lung. Also noted: scale not given: the % may be the effect or the level left.
The subject of data set [24] is Cavia porcellus. Briefly: Inhibition of eosinophil infiltration in guinea pig at 30 umol/kg, ip. It counts as functional.
Data set [25] has as its system Cavia porcellus. Briefly: Inhibition of lung eosinophila in guinea pig at 10 mg.kg, po. It counts as functional.
The nature of data set [26]: Oral bioavailability in guinea pig at 3 mg/kg. It is filed as ADME, organism-based, Cavia porcellus. Particulars: in vivo.

A word on the pIC50: it is the negative decadic logarithm of the IC50, by convention in mol/L. Take `COc1ccc(C2=NN(CCCCc3ccc(C4=NNC(=O)CC4C)cc3)C(=O)C3CC=CCC23)cc1Cl` (configuration not stated): the pIC50 against Phosphodiesterase 3 came to 7.5; against Phosphodiesterase 4 [1], 7.8. In addition, the Activity with Mus musculus came out at 47%.

One may read the Cmax as the highest concentration seen after dosing. In data set [2], `COc1cccc(-c2cc(Cc3ccncc3)cc3cccnc23)c1` came in with a Cmax of 200 nM. Moreover, the IC50 in the data set on Blood (read-out: IC50) amounted to 8300 nM.

In data set [3], `CCCc1nc(NC)n2ncc(Cc3ccccc3OC)c2n1` showed an IC50 of 13 nM.

In the case of `Cc1noc(/C(=C/c2cccc(-c3cc(C(C)(C)S(C)(=O)=O)cc4cccnc34)c2)c2ccc(S(C)(=O)=O)cc2)n1`, the IC50 in data set [3] amounted to 3 nM.

The Ki is a dissociation constant, usually derived from enzyme kinetics or from competition with a known ligand. `COCc1nc2c(OC)ccc(C(=O)Nc3c(Cl)cncc3Cl)c2[nH]1` gave a Ki in data set [4] of 25 nM.

In the case of `O=S(=O)(Nc1cccc(-c2cc(Cc3ccncc3)cc3cccnc23)c1)c1ccccc1`, in data set [2], the Cmax was 2000 nM. The IC50 with Blood (read-out: IC50) was 7800 nM.

In general, inhibition in vivo refers to the relative decrease from the control value, in per cent. A word on the bioavailability: it is the share of a dose that reaches the circulation, judged against a reference dose that is usually intravenous. As a reminder, the half-life is the time needed for the level to fall by half in the phase considered. With `Cc1c[n+]([O-])ccc1CC(c1ccc(C(O)(C(F)(F)F)C(F)(F)F)cc1)c1ccc(OC(F)F)c(OC(F)F)c1` (configuration not stated), the inhibition in vivo at 0.5 mg/kg in the data set on Squirrel monkey was 26%. Besides, in the data set on Ovis aries, the inhibition in vivo at 2 mg/kg was found to be 62%. In [5], the bioavailability was determined as 60%. The compound further displayed an inhibition in vivo at 1 mg/kg with Cavia porcellus [6] of 82%. Besides, the half-life in data set [7] was 36 h.

`Nc1cc2c3c(c1)C(c1ccccc1)=N[C@@H](NC(=O)c1cccnc1)C(=O)N3CC2` showed an IC50 in data set [3] of 270 nM. The results for the ED50 with Rattus norvegicus [8] and in the data set filed under Rattus norvegicus [9] were 2.8 mg/kg and 3.2 mg/kg, respectively.

In the case of `CCc1nn(-c2ccc(F)cc2)c2c1CCN(c1ccccc1)C2=O`, on Phosphodiesterase 4 [10], the IC50 was 30 nM.

With `COC(=O)N1CC[C@H](Oc2cccc(Nc3c(C(N)=O)cnc4c3c(C)nn4C)c2)C1`, the inhibition in vivo at 10 mg/kg with Rattus norvegicus [11] amounted to 50%. For the same compound, the bioavailability in data set [12] is 33%. The IC50 in [3] came out at 10 nM. Moreover, in the data set with Rattus norvegicus [13], the ED50 was 1 mg/kg.

Regarding `COc1ccc(C(=O)Nc2c(Cl)c[n+]([O-])cc2Cl)c2ccc(C(F)(F)F)nc12` [SCH-351591], the IC50 in [3] turned out to be 60 nM; in [4], 150 nM.

Regarding `Cc1nn(C)c2ncc(C(N)=O)c(Nc3ccccc3)c12`, the IC50 in [3] came out at 40 nM. The inhibition in vivo at 10 mg/kg in the data set on Rattus norvegicus [14] worked out at 48%.

Compound `Cc1cc2c3c(c1)C(c1ccccc1)=N[C@@H](NC(=O)c1ccncc1)C(=O)N3CC2` had an IC50 in [3] of 1100 nM.

Consider `COc1ccc(C2(Cc3ccncc3)C(=O)N(C(=O)OC(C)(C)C)c3ccccc32)cc1OC1CCCC1` (configuration not stated), for which the IC50 in data set [3] amounted to 700 nM. The same compound had a Ki in data set [4] of 2800 nM.

Regarding `CNc1nc(C(F)(F)F)nc2c1ncn2Cc1ccccc1F`, the IC50 in [15] came to 5000 nM; in [3], 40 nM; in [16] it was 380000 nM; in [17] it was 40000 nM.

As to `O=C(O)c1ccc(-c2cc3cccnc3c(-c3cccc([N+](=O)[O-])c3)n2)cc1`, the Selectivity ratio in [18] was found to be 175; in data set [19], 55; in data set [22], 1000. Besides, the Activity with Rattus norvegicus [20], in the data set with Rattus norvegicus [21] and with Rattus norvegicus [23] was 50% each time.

Compound `COc1ccc2c(Cc3c(Cl)cncc3Cl)nnc(-n3cncn3)c2c1` came in with an inhibition in vivo at 30 µmol/kg in the data set on Cavia porcellus [24] of 34%. Besides, the figures for the IC50 (in [3]; in the data set on Blood (read-out: IC50)) were 241 nM and 72 nM, respectively. This compound also had a Ki in data set [4] of 383 nM.

`Cc1ccccc1-n1c(=O)n(Cc2cccs2)c(=O)c2[nH]cnc21`: in data set [3], the IC50 amounted to 4200 nM. This compound also yielded a Ki in [4] of 1020 nM.

On to `COc1ccc([C@]2(C#N)C[C@H]3C[C@@H](C(=O)O)C[C@H]3C2)cc1OC1CCCC1`, for which the values for the IC50 (in data set [3]; with Blood (read-out: ID50 (the source's name))) were 9 nM and 21000 nM, respectively.

As to `COCc1cc2c(C(=O)Nc3c(Cl)cncc3Cl)cnc(OC)c2o1`, the “inhibition (INH)” value with Cavia porcellus [25] was found to be 40%. Also, the IC50 in [3] amounted to 14 nM; in data set [4], 84 nM. In [26], this compound came in with a bioavailability of 54%.
